The source of these data is patent US20200199647A1, “ASSAY FOR SCREENING MODULATORS OF HOLOPHOSPHATASE ACTIVITY” (UNITED KINGDOM RESEARCH AND INNOVATION, priority 2017, published 2020).

Structures are written as SMILES.

Experiment [1] deals with T1, R15B-PP1c (Homo sapiens, UniProt Q5SWA1).
T1 construct: PPP1R15B amino acids 340-698 (R15B); His6 (C); made in house; host or cells: E. coli BL21 pLysS (R15B, eIF2α); E. coli BL21/pGro7 (PP1c)
The experiment can be described thus: In vitro dephosphorylation of P-eIF2α by recombinant R15B-PP1c holophosphatase (10 nM PP1c). It counts as biochemical. The settings on record: PP1c 10 nM, 1 μM P-eIF2α, compounds 100 μM, 30° C., 16 h. Here is the method:
(§1) PP1c was diluted to the appropriate concentration (as indicated in the figure legends) in dephosphorylation buffer immediately prior to use. Dephosphorylation reactions were carried out by pre-incubating diluted PP1c in the presence or absence of regulatory subunits (either […]), and/or compounds (all at 100 μM, except for Salubrinal which was used at 30 μM), for 15′ at RT. All compounds were diluted in DMSO, and DMSO vehicle was used in all control experiments.
The reaction was initiated by the addition of 1 μM P-eIF2α or ^33P Phosphorylase a substrates and then incubated at 30° C. for 16 h with shaking at 350 rpm. Reactions were stopped by addition of 4× Laemmli sample buffer. eIF2α samples were analyzed by immunoblotting or Phos-tag gels. P-eIF2α dephosphorylation was analysed by immunoblotting using anti-Phospho-eIF2α (SerS1) (#9721) (Cell Signaling) and anti-eIF2α (ab26197) (AbCam) antibodies. Samples in FIG. 8 and FIG. 16 were run on a 15% SuperSep Phos-tag acrylamide gel (Alpha Laboratories) and visualized by staining with InstantBlue Protein Stain.

For experiment [2], the target named is T2, PP1c (Homo sapiens, UniProt P62136).
T2 construct: The cDNA encoding amino acids 7-330 of human PP1cα; made in house; host or cells: E. coli BL21/pGro7 (PP1c); E. coli BL21 pLysS (eIF2α)
The experiment in a line: Dephosphorylation of P-eIF2α by increasing amounts of PP1c alone. The settings on record: compound 100 μM, 30° C., 16 h. It counts as biochemical. Here is the method: as §1
The reaction was initiated by the addition of 1 μM P-eIF2α or ^33P Phosphorylase a substrates and then incubated at 30° C. for 16 h with shaking at 350 rpm. Reactions were stopped by addition of 4× Laemmli sample buffer. eIF2α samples were analyzed by immunoblotting or Phos-tag gels. […] Samples in FIG. 8 and FIG. 16 were run on a 15% SuperSep Phos-tag acrylamide gel (Alpha Laboratories) and visualized by staining with InstantBlue Protein Stain.

The target of experiment [3] is T3, R15A^N/R15B^C (Homo sapiens, UniProt O75807+Q5SWA1).
T3 construct: PPP1R15A amino acids 325-636 (R15A), 325-512 (R15A^N), and 513-636 (R15A^C); PPP1R15B amino acids 340-698 (R15B), 340-635 (R15B^N), and 636-698 (R15B^C); R15B^C (PPP1R15B amino acids 636-698); His6 (C); made in house; host or cells: E. coli BL21 pLysS (chimera, eIF2α); E. coli BL21/pGro7 (PP1c)
The experiment can be described thus: Dephosphorylation of P-eIF2α by chimeric holophosphatase PP1c-R15A^N/R15B^C. It counts as biochemical. The settings on record: PP1c 10 nM, compounds 100 μM, 30° C., 16 h.
Text: (§2) The cDNA encoding human PPP1R15A, PPP1R15B and PPP1R3A regulatory subunits were cloned into a pMAL-c5×-His vector, encoding for an amino-terminal MBP-tag and a carboxy-terminal His6-tag. […] R15A^N/R15B^C Chimeras were obtained by swapping the amino-terminal regions (R15^N) of R15A and R15B proteins described above, whilst maintaining the same carboxy-terminal regions (R15^C), to produce R15B^N/R15A^C and […] chimeras respectively, using In-Fusion cloning (Takara). All regulatory subunits were expressed in BL21 pLysS cells in Luria broth (LB) at 30° C. overnight. […] R15 proteins were stored at −80° C. and used within one month.
as §1
(§3) The reaction was initiated by the addition of 1 μM P-eIF2α or ^33P Phosphorylase a substrates and then incubated at 30° C. for 16 h with shaking at 350 rpm. Reactions were stopped by addition of 4× Laemmli sample buffer. eIF2α samples were analyzed by immunoblotting or Phos-tag gels. […]

Experiment [4] addresses T4, R15B^N/R15A^C (Homo sapiens, UniProt O75807+Q5SWA1).
T4 construct: PPP1R15B amino acids 340-698 (R15B), 340-635 (R15B^N), and 636-698 (R15B^C); PPP1R15A amino acids 325-636 (R15A), 325-512 (R15A^N), and 513-636 (R15A^C); R15A^C (PPP1R15A amino acids 513-636); His6 (C); made in house; host or cells: E. coli BL21 pLysS (chimera, eIF2α); E. coli BL21/pGro7 (PP1c)
The experiment in a line: Dephosphorylation of P-eIF2α by chimeric holophosphatase PP1c-R15B^N/R15A^C. The settings on record: PP1c 10 nM, compounds 100 μM, 30° C., 16 h. It is filed as biochemical.
Text: as §2, §1, §3

The target of experiment [5] is T5, R15A (Homo sapiens, UniProt O75807).
T5 construct: PPP1R15A amino acids 325-636 (R15A); His6 (C); made in house; host or cells: E. coli BL21 pLysS
The experiment can be described thus: Limited trypsin proteolysis of R15A (conformational change). The settings on record: 22° C. Here is the method:
(§4) Reactions were allowed to proceed at 22° C. with shaking at 350 rpm. At time points 30 min, 1 h, 2 h or 3 h, 30 μl of sample was removed from the mix and digestion was stopped by addition of 10 μl of 16% SDS Laemmli sample buffer. Samples were run on 4-12% NuPAGE Bis-Tris gels (Life Technologies). Proteins were visualised by staining with InstantBlue Coomassie Protein Stain (Expedeon) protein stain.
(§5) Purified R15A and R15B were diluted to 3 μM in PBS, and incubated for 15′ at RT with 100 μM Raphin1, or DMSO vehicle. Reactions were initiated by addition of 5 nM of trypsin from bovine pancreas (Sigma), made up in PBS, and allowed to proceed for 5′ at 22° C., with shaking at 350 rpm. Digestion was stopped by addition of 4× Laemmli sample buffer and samples were run on 4-12% NuPAGE Bis-Tris gels (Life Technologies). Proteins were visualised by staining with InstantBlue Protein Stain.

The target in experiment [6] is T6, R15B (Homo sapiens, UniProt Q5SWA1).
T6 construct: PPP1R15B amino acids 340-698 (R15B); His6 (C); made in house; host or cells: E. coli BL21 pLysS
T6 sequence (Q5SWA1 340-698): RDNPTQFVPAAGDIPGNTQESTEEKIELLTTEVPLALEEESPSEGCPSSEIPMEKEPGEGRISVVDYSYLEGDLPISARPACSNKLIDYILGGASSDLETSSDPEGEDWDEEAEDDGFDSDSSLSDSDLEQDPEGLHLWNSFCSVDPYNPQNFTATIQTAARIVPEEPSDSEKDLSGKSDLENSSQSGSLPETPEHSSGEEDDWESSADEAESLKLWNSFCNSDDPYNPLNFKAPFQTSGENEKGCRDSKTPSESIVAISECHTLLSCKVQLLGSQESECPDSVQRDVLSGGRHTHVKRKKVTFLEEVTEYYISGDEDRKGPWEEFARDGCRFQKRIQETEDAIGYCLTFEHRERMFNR
The experiment in a line: Limited trypsin proteolysis of R15B (conformational change). The following applies: 22° C. Here is the method: as §4, §5

T4 sequence (Q5SWA1+O75807 fused, stated change not applied): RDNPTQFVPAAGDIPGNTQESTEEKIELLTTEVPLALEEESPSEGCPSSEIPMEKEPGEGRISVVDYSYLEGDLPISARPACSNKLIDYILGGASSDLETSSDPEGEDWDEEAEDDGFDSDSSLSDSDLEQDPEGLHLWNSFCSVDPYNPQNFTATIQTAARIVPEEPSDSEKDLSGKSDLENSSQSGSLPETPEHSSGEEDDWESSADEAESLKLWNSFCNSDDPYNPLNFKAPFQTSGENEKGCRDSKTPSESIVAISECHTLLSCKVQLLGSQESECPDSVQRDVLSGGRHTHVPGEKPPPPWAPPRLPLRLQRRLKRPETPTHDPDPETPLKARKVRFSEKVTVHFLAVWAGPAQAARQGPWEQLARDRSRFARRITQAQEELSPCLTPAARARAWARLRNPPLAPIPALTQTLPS
T4 sequence (P62136 7-330 partner): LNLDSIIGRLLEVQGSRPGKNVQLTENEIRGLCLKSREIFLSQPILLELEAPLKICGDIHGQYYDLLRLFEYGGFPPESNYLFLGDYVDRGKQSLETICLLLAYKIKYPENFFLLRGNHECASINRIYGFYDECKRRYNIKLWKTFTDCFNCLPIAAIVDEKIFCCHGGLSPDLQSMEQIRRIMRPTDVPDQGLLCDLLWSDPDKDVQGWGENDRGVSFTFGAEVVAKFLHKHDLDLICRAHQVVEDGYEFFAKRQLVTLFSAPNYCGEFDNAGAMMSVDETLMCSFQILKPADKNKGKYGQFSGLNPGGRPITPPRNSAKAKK
T1 sequence (P62136 7-330 partner limits assumed, one chain of several): as the sequence (P62136 7-330 partner) above
T3 sequence (O75807+Q5SWA1 fused, stated change not applied): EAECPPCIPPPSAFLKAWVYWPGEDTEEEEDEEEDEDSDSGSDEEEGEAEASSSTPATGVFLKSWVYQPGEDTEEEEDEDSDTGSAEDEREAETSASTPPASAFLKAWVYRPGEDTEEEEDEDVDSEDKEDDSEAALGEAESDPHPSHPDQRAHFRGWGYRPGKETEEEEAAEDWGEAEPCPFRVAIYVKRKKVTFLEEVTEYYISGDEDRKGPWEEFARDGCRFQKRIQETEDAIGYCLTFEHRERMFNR
T3 sequence (P62136 7-330 partner): as the sequence (P62136 7-330 partner) above
T5 sequence (O75807 325-636, stated change not applied): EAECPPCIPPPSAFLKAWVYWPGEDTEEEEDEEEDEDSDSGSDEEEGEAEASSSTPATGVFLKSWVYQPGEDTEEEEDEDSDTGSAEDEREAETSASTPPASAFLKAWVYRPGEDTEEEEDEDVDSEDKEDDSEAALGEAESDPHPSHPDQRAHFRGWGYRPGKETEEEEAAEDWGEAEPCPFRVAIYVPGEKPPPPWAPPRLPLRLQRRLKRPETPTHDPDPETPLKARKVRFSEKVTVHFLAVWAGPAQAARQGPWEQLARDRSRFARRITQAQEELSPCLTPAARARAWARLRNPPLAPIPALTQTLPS
T2 sequence (P62136 7-330): as the sequence (P62136 7-330 partner) above

Turning to `NC(N)=N/N=C/c1cccc(Cl)c1Cl` [Raphin1], the “inhibition of R15B-PP1c eIF2α holophosphatase” value in experiment [1] is reported as “selectively inhibited R15B-PP1c”. Moreover, the “inhibition of PP1c alone” value in experiment [2] is “did not inhibit PP1c”. Besides, in experiment [3], the “inhibition of R15A^N/R15B^C chimeric holophosphatase” value is listed as “not R15A^N/R15B^C”. Further, the “inhibition of R15B^N/R15A^C chimeric holophosphatase” value in experiment [4] was “selectively inhibited R15B^N/R15A^C”. Also, the “trypsin sensitivity of R15A” value in experiment [5] (100 μM Raphin1, 3 μM R15A, 5 nM trypsin, 5 min) is listed as “had no effect on the trypsin sensitivity of R15A”. For the same molecule, the “trypsin sensitivity of R15B” value in experiment [6] (100 μM Raphin1, 3 μM R15B, 5 nM trypsin, 5 min) is listed as “protected R15B”.
Turning to `N=C(N)N/N=C/c1c(Cl)cccc1Cl` [Guanabenz], in experiment [1], the “inhibition of R15B-PP1c eIF2α holophosphatase” value is listed as “not R15B-PP1c”. For the same molecule, the “inhibition of PP1c alone” value in experiment [2] was “did not inhibit PP1c”. The “inhibition of R15A^N/R15B^C chimeric holophosphatase” value in experiment [3] is given as “inhibited”. Moreover, the “inhibition of R15B^N/R15A^C chimeric holophosphatase” value in experiment [4] is reported as “largely insensitive”. Further, in experiment [5] (100 μM compound, 0.5 μM R15A, 2.5 nM trypsin, 30 min to 3 h), the “sensitivity of R15A to trypsin proteolysis” value is given as “decreased the sensitivity of R15A to trypsin proteolysis”. Moreover, the “sensitivity of R15B to trypsin proteolysis” value in experiment [6] (100 μM compound, 0.5 μM R15B, 2.5 nM trypsin, 30 min to 3 h) is “No such protective effects”.
